Values joined by “and” are separate entries in the source; they are usually repeats but may differ in a detail not shown here. Equal entries are not always repeated. Where two headings read alike, the source gives them in different places.
Tests used:
Assay type in all cases: cell-based
[1] = tested on: T24-BAG4 human bladder carcinoma cells expressing an activated H-ras gene; assay: Cell Mat Assay: tumor cell colony inhibition (tIC50); conditions: Homo sapiens, inhibition of tumor cell growth
How it was run: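 Serial compound dilutions added 24 h after planting T24-BAG4 cells onto a mat of normal cells, then 14 d colony growth; monolayers glutaraldehyde-fixed and tumor cells X-Gal stained. tIC50 and mIC50 from microscope counts of colonies, cells per colony and mat cell density.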

[2] = tested on: COS monkey kidney cells expressing val12-Ha-Ras-CVLL; assay: COS cell assay: disordered cell growth / morphological changes induced by Ras-CVLL; conditions: 20 μg/mL
Text: (§1) 2. Cell-Based Assay: Transient expression of val^12-Ha-Ras-CVLS and val^12-Ha-Ras-CVLL in COS monkey kidney cells: Effect of farnesyl protein transferase inhibitors on Ras processing and on disordered cell growth induced by transforming Ras.
(§2) COS monkey kidney cells were transfected by electroporation with the plasmid pSV-SPORT (Gibco/BRL) containing a cDNA insert encoding either Ras-CVLS or Ras-CVLL, leading to transient overexpression of a Ras substrate for either farnesyl protein transferase or geranylgeranyl protein transferase I, respectively (see above).
(§3) Following electroporation, cells were plated into 6-well tissue culture dishes containing 1.5 ml of Dulbecco's-modified Eagle's media (GIBCO, Inc.) supplemented with 10% fetal calf serum and the appropriate farnesyl protein transferase inhibitors. After 24 hours, media was removed and fresh media containing the appropriate drugs was re-added.
(§4) 48 hours after electroporation cells were examined under the microscope to monitor disordered cell growth induced by transforming Ras. Cells expressing transforming Ras become more rounded and refractile and overgrow the monolayer, reminiscent of the transformed phenotype. […]

[3] = tested on: COS monkey kidney cells expressing val12-Ha-Ras-CVLS; assay: COS cell assay: disordered cell growth / morphological changes induced by Ras-CVLS
Text: as §1, §2, §3, §4

[4] = tested on: Ras-CVLL processing in COS monkey kidney cells; assay: COS cell assay: Ras-CVLL processing (geranylgeranylation); conditions: concentrations up to 20 μg/mL
Text: as §1
COS monkey kidney cells were transfected by electroporation with the plasmid pSV-SPORT (Gibco/BRL) containing a cDNA insert encoding either Ras-CVLS or Ras-CVLL, leading to transient overexpression of a Ras substrate for either farnesyl protein transferase or geranylgeranyl protein transferase I, respectively (see above). […]
Membranes were blocked by incubation overnight at 4° C. in PBS containing 2.5% dried milk and 0.5% Tween-20 and then incubated with a Ras-specific monoclonal antibody, Y13-259 (Furth, M. E., et al., (1982), Monoclonal antibodies to the p21 products of the transforming gene of Harvey murine sarcome virus and of the cellular ras gene family, J. Virol. 43: 294-304), in PBS containing 1% fetal calf serum for one hour at room temperature. […] The presence of processed and unprocessed Ras-CVLS or Ras-CVLL was detected using a colorimetric peroxidase reagent (4-chloro-1-naphthol) as described by the manufacturer (Bio-Rad).

[5] = tested on: Ras-CVLS processing in COS monkey kidney cells; assay: COS cell assay: Ras-CVLS processing (Western blot); conditions: Primates, COS
How it was run: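 COS cells electroporated with Ras-CVLS (farnesyl transferase substrate) cDNA, with drug-containing fresh medium added at 24 h and cells examined at 48 h. TCA-precipitated cellular protein was resolved by SDS gel and immunoblotted with anti-p21 Ras monoclonal and HRP anti-rat IgG to monitor Ras processing.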

## O=C(Cc1ccncc1)N1CCC(=C2c3ccc(Cl)cc3CCc3cccnc32)CC1 [Example 1, 1-(4-pyridylacetyl)-4-(8-chloro-5,6-dihydro-11H-benzo[5,6]cyclohepta[1,2-b]pyridin-11-ylidene)piperidine]
[1]
  IC50: 3100 nM
[2]
  morphological changes induced by Ras-CVLL: did not prevent the morphological changes
[3]; at 0.2 or 0.5 μg/mL
  morphological changes induced by Ras-CVLS: little effect
[3]; concentration range of 2 to 20 μg/mL
  morphological changes induced by Ras-CVLS: inhibited the morphological changes induced by Ras-CVLS in a dose-dependent manner
[4]
  geranylgeranylation of Ras-CVLL: did not block
[5]; COS cells, read-out: Inhibition of Ras Processing IC50
  IC50: 1000 nM
[5]; Ras-transfected COS cells, read-out: Ras-CVLS processing IC50
  IC50: 1 µM and 0.44 µg/mL

Source: US20030055065A1, “Tricyclic amide and urea compounds useful for inhibition of G-protein function and for treatment of proliferative diseases” (priority 1993, published 2003)
